These results are taken from PubChem BioAssay (NCI).

Molecules are shown by their SMILES. Values joined by “and” are separate entries in the source; they are usually repeats but may differ in a detail not shown here. Equal values may be shown once.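 Method: 48-hour compound exposure of cells in 96-well plates, five concentrations, linear interpolation of endpoints. GI50: concentration for 50% inhibition of growth. Definition used: TGI = concentration required for complete inhibition of growth.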

Some test systems named below: ACHN renal; CCRF-CEM leukemia; HCT-15 colon; MOLT-4 leukemia; OVCAR-4 ovarian; RXF 393 renal; SF-295 CNS; SK-MEL-2 melanoma; SK-MEL-5 melanoma.
Holding throughout (assay): inhibition of tumour cell growth, NCI panel, 48 h

Take `C=C(Cl)C(Br)(CCl)CCC(Br)C(C)(C)Cl` (centres undefined): the GI50 in the assay with ACHN renal was 3.94 µM; in the assay with CCRF-CEM leukemia, 0.223 µM; with HCT-15 colon it was 2.01 µM; in the assay with OVCAR-4 ovarian, 3.25 µM; with SK-MEL-2 melanoma, 3.14 µM. The TGI with ACHN renal is 9.71 µM; in the assay with CCRF-CEM leukemia, 6.34 µM and 1.38 µM; in the assay with HCT-15 colon, 9.57 µM and 3.94 µM; with MOLT-4 leukemia, 8.82 µM; in the assay with OVCAR-4 ovarian, 8.24 µM; with RXF 393 renal, 6.98 µM and 5.42 µM. Besides, the TGI in the assay on SF-295 CNS is 19.9 µM; in the assay on SK-MEL-2 melanoma, 7.42 µM; in the assay on SK-MEL-5 melanoma it was 6.96 µM and 6.1 µM.

On to `Cn1cc(C2=C(c3cn(CCCCO)c4ccccc34)C(=O)NC2=O)c2ccccc21`, for which the GI50 with ACHN renal is 6.38 µM; in the assay on CCRF-CEM leukemia it was 6 µM; in the assay with HCT-15 colon, 7.72 µM; in the assay on MOLT-4 leukemia it was 7.68 µM; in the assay with OVCAR-4 ovarian, 13.9 µM; in the assay with RXF 393 renal it was 3.92 µM. For the same compound, the GI50 with SF-295 CNS was 5.9 µM; in the assay with SK-MEL-2 melanoma it was 7.65 µM; in the assay on SK-MEL-5 melanoma, 6.26 µM. Besides, the TGI was over 23.4 µM with ACHN renal; over 25 µM in the assay with CCRF-CEM leukemia; over 25 µM in the assay on HCT-15 colon; over 22 µM with MOLT-4 leukemia; over 25 µM in the assay with OVCAR-4 ovarian; 10.8 µM with RXF 393 renal. Besides, the results for the TGI in the assay with SF-295 CNS, with SK-MEL-2 melanoma and in the assay on SK-MEL-5 melanoma were over 25 µM, 21.6 µM and over 20.5 µM, respectively.

Turning to `Cc1ccc(NC(=O)CC2CC2)cc1-c1ccc(C(=O)NCC2CC2)cc1`, the GI50 in the assay with ACHN renal, with CCRF-CEM leukemia, in the assay with HCT-15 colon, with MOLT-4 leukemia, in the assay on OVCAR-4 ovarian and with RXF 393 renal was over 25 µM in each case. Also, the values for the GI50 in the assay on SF-295 CNS, in the assay with SK-MEL-2 melanoma and with SK-MEL-5 melanoma were over 25 µM, over 25 µM and over 17.5 µM, respectively. Further, the TGI in the assay with ACHN renal, in the assay on CCRF-CEM leukemia, with HCT-15 colon, in the assay with MOLT-4 leukemia, with OVCAR-4 ovarian and in the assay on RXF 393 renal was over 25 µM each time. Besides, the TGI in the assay with SF-295 CNS, in the assay on SK-MEL-2 melanoma and with SK-MEL-5 melanoma was over 25 µM throughout.

Turning to `COc1ccc(/C=C2/N=C(c3ccccc3)N(c3c(C)n(C)n(-c4ccccc4)c3=O)C2=O)cc1OC`, the GI50 was over 100 µM with ACHN renal; over 100 µM in the assay with CCRF-CEM leukemia; over 100 µM in the assay on HCT-15 colon; 78.3 µM in the assay with MOLT-4 leukemia; over 100 µM with OVCAR-4 ovarian; over 100 µM with RXF 393 renal. Further, the figures for the GI50 with SF-295 CNS, in the assay on SK-MEL-2 melanoma and with SK-MEL-5 melanoma were over 100 µM, over 100 µM and 51.7 µM, respectively. The TGI with ACHN renal, in the assay on CCRF-CEM leukemia, in the assay on HCT-15 colon, with MOLT-4 leukemia, in the assay on OVCAR-4 ovarian and in the assay with RXF 393 renal was over 100 µM in each case. The TGI in the assay on SF-295 CNS, with SK-MEL-2 melanoma and in the assay on SK-MEL-5 melanoma was over 100 µM in each case.

In the case of `COc1ccc(-c2nc3ccc(-c4nc5ccc(N6CCN(c7ccccc7)CC6)cc5[nH]4)cc3[nH]2)cc1OC`, the GI50 in the assay with ACHN renal is 2.28 µM; in the assay with HCT-15 colon, 5.13 µM; with MOLT-4 leukemia, 1.37 µM; in the assay with OVCAR-4 ovarian, 1.52 µM; with RXF 393 renal, 1.59 µM; in the assay on SF-295 CNS it was 1.73 µM. In addition, the GI50 with SK-MEL-2 melanoma is 2.04 µM; in the assay with SK-MEL-5 melanoma it was 1.47 µM. The TGI in the assay with ACHN renal was 10.2 µM; with CCRF-CEM leukemia, 2.54 µM; in the assay on HCT-15 colon, over 100 µM; in the assay on MOLT-4 leukemia it was 6.47 µM; in the assay with OVCAR-4 ovarian, 3.04 µM; in the assay with RXF 393 renal, 3.41 µM. Moreover, the TGI with SF-295 CNS is 4.02 µM; in the assay on SK-MEL-2 melanoma, 4.07 µM; with SK-MEL-5 melanoma, 3.31 µM.

For `O=C(N[C@@H](c1ccc(Cl)c(Cl)c1)C1CNC1)c1ccc2cnccc2c1`, the GI50 with ACHN renal is 0.904 µM; in the assay on CCRF-CEM leukemia, 0.189 µM; in the assay on HCT-15 colon, 1.6 µM; with MOLT-4 leukemia, 0.106 µM; with OVCAR-4 ovarian, 1.8 µM; in the assay on RXF 393 renal, 0.023 µM. For the same compound, the values for the GI50 in the assay on SF-295 CNS, in the assay with SK-MEL-2 melanoma and in the assay with SK-MEL-5 melanoma were 0.0914 µM, 0.52 µM and 2.85 µM, respectively. The TGI in the assay on ACHN renal turned out to be 12 µM; in the assay with CCRF-CEM leukemia, 14.6 µM; with HCT-15 colon it was 12 µM; with MOLT-4 leukemia it was 6.18 µM; in the assay with OVCAR-4 ovarian it was 12.7 µM; in the assay on RXF 393 renal it was 0.191 µM. In addition, the TGI was found to be 1.21 µM with SF-295 CNS, 3.06 µM in the assay with SK-MEL-2 melanoma and 12.1 µM in the assay with SK-MEL-5 melanoma.

With `Nc1c(C(=O)Nc2ccncc2)sc2nc3c(cc12)CCCCCCCC3`, the GI50 was 0.889 µM with ACHN renal; 1.3 µM in the assay with CCRF-CEM leukemia; 0.962 µM in the assay on HCT-15 colon; 1.22 µM with MOLT-4 leukemia; 0.861 µM with OVCAR-4 ovarian; 0.938 µM in the assay with RXF 393 renal. Further, the figures for the GI50 with SF-295 CNS, in the assay with SK-MEL-2 melanoma and with SK-MEL-5 melanoma were 0.907 µM, 0.975 µM and 0.831 µM, respectively. For the same compound, the TGI with ACHN renal was found to be 1.6 µM; with CCRF-CEM leukemia, 3.26 µM; with HCT-15 colon, 1.8 µM; in the assay with MOLT-4 leukemia, 2.76 µM; with OVCAR-4 ovarian it was 1.6 µM; in the assay with RXF 393 renal it was 1.7 µM. Further, the TGI came out at 1.69 µM with SF-295 CNS, 1.79 µM in the assay with SK-MEL-2 melanoma and 1.52 µM with SK-MEL-5 melanoma.

Regarding `O=C(Nc1ccncc1)C(=O)c1cn(S(=O)(=O)c2ccc(F)cc2)c2ccccc12`, the GI50 with ACHN renal was 5.76 µM; in the assay with CCRF-CEM leukemia it was 6.21 µM; with HCT-15 colon, 1.41 µM; in the assay on MOLT-4 leukemia it was 5.22 µM; in the assay with OVCAR-4 ovarian, 23.1 µM; in the assay on RXF 393 renal, 2.6 µM. Moreover, the GI50 was 3.01 µM in the assay on SF-295 CNS, 4.74 µM in the assay with SK-MEL-2 melanoma and 1.84 µM in the assay with SK-MEL-5 melanoma. The TGI is over 100 µM in the assay on ACHN renal; over 100 µM with CCRF-CEM leukemia; over 100 µM with HCT-15 colon; over 100 µM in the assay on MOLT-4 leukemia; over 100 µM in the assay on OVCAR-4 ovarian; 8.72 µM in the assay on RXF 393 renal. The TGI with SF-295 CNS stood at 38.1 µM; in the assay with SK-MEL-2 melanoma, 52.9 µM; in the assay on SK-MEL-5 melanoma, 16.3 µM.
